Key:
[1] = Displacement of [125I]IMPY from amyloid beta 1 to 42 after 2 hrs
Intestine [2] = test: Biodistribution in ddY mouse intestine assessed per gram of tissue at 1 uCi, iv after 60 mins; type: ADME, organism-based; settings: in vivo, 1 h
Stomach [3] = test: Biodistribution in ddY mouse stomach assessed per gorgan at 1 uCi, iv after 60 mins; type: ADME, organism-based; settings: in vivo, 1 h
Lung [4] = test: Biodistribution in ddY mouse lung assessed per gram of tissue at 1 uCi, iv after 120 mins; type: ADME, organism-based; settings: in vivo, 2 h
Blood [5] = test: Biodistribution in ddY mouse blood assessed per gram of tissue at 1 uCi, iv after 120 mins; type: ADME, organism-based; settings: in vivo, 2 h
Heart [6] = test: Biodistribution in ddY mouse heart assessed per gram of tissue at 1 uCi, iv after 30 mins; type: ADME, organism-based; settings: in vivo, 0.5 h
Lung [7] = test: Biodistribution in ddY mouse lung assessed per gram of tissue at 1 uCi, iv after 15 mins; type: ADME, organism-based; settings: in vivo, 0.25 h
Liver [8] = test: Biodistribution in ddY mouse liver assessed per gram of tissue at 1 uCi, iv after 2 mins; type: ADME, organism-based; settings: in vivo
Stomach [9] = test: Biodistribution in ddY mouse stomach assessed per gorgan at 1 uCi, iv after 15 mins; type: ADME, organism-based; settings: in vivo, 0.25 h
Spleen [10] = test: Biodistribution in ddY mouse spleen assessed per gram of tissue at 1 uCi, iv after 120 mins; type: ADME, organism-based; settings: in vivo, 2 h
Brain [11] = test: Biodistribution in ddY mouse brain assessed per gram of tissue at 1 uCi, iv after 60 mins; type: ADME, organism-based; settings: in vivo, 1 h
Heart [12] = test: Biodistribution in ddY mouse heart assessed per gram of tissue at 1 uCi, iv after 15 mins; type: ADME, organism-based; settings: in vivo, 0.25 h
Stomach [13] = test: Biodistribution in ddY mouse stomach assessed per gorgan at 1 uCi, iv after 2 mins; type: ADME, organism-based; settings: in vivo
Heart [14] = test: Biodistribution in ddY mouse heart assessed per gram of tissue at 1 uCi, iv after 60 mins; type: ADME, organism-based; settings: in vivo, 1 h
Blood [15] = test: Biodistribution in ddY mouse blood assessed per gram of tissue at 1 uCi, iv after 30 mins; type: ADME, organism-based; settings: in vivo, 0.5 h
Kidney [16] = test: Biodistribution in ddY mouse kidney assessed per gram of tissue at 1 uCi, iv after 60 mins; type: ADME, organism-based; settings: in vivo, 1 h
Kidney [17] = test: Biodistribution in ddY mouse kidney assessed per gram of tissue at 1 uCi, iv after 120 mins; type: ADME, organism-based; settings: in vivo, 2 h
Lung [18] = test: Biodistribution in ddY mouse lung assessed per gram of tissue at 1 uCi, iv after 2 mins; type: ADME, organism-based; settings: in vivo
Brain [19] = test: Biodistribution in ddY mouse brain assessed per gram of tissue at 1 uCi, iv after 30 mins; type: ADME, organism-based; settings: in vivo, 0.5 h
Lung [20] = test: Biodistribution in ddY mouse lung assessed per gram of tissue at 1 uCi, iv after 30 mins; type: ADME, organism-based; settings: in vivo, 0.5 h
Brain [21] = test: Biodistribution in ddY mouse brain assessed per gram of tissue at 1 uCi, iv after 15 mins; type: ADME, organism-based; settings: in vivo, 0.25 h
Heart [22] = test: Biodistribution in ddY mouse heart assessed per gram of tissue at 1 uCi, iv after 120 mins; type: ADME, organism-based; settings: in vivo, 2 h
Kidney [23] = test: Biodistribution in ddY mouse kidney assessed per gram of tissue at 1 uCi, iv after 15 mins; type: ADME, organism-based; settings: in vivo, 0.25 h
Brain [24] = test: Biodistribution in ddY mouse brain assessed per gram of tissue at 1 uCi, iv after 2 mins; type: ADME, organism-based; settings: in vivo
Liver [25] = test: Biodistribution in ddY mouse liver assessed per gram of tissue at 1 uCi, iv after 60 mins; type: ADME, organism-based; settings: in vivo, 1 h
Liver [26] = test: Biodistribution in ddY mouse liver assessed per gram of tissue at 1 uCi, iv after 15 mins; type: ADME, organism-based; settings: in vivo, 0.25 h
Lung [27] = test: Biodistribution in ddY mouse lung assessed per gram of tissue at 1 uCi, iv after 60 mins; type: ADME, organism-based; settings: in vivo, 1 h
Blood [28] = test: Biodistribution in ddY mouse blood assessed per gram of tissue at 1 uCi, iv after 60 mins; type: ADME, organism-based; settings: in vivo, 1 h
Spleen [29] = test: Biodistribution in ddY mouse spleen assessed per gram of tissue at 1 uCi, iv after 30 mins; type: ADME, organism-based; settings: in vivo, 0.5 h
Brain [30] = test: Biodistribution in ddY mouse brain assessed per gram of tissue at 1 uCi, iv after 120 mins; type: ADME, organism-based; settings: in vivo, 2 h
Heart [31] = test: Biodistribution in ddY mouse heart assessed per gram of tissue at 1 uCi, iv after 2 mins; type: ADME, organism-based; settings: in vivo
Spleen [32] = test: Biodistribution in ddY mouse spleen assessed per gram of tissue at 1 uCi, iv after 2 mins; type: ADME, organism-based; settings: in vivo
Intestine [33] = test: Biodistribution in ddY mouse intestine assessed per gram of tissue at 1 uCi, iv after 2 mins; type: ADME, organism-based; settings: in vivo
Liver [34] = test: Biodistribution in ddY mouse liver assessed per gram of tissue at 1 uCi, iv after 120 mins; type: ADME, organism-based; settings: in vivo, 2 h
Stomach [35] = test: Biodistribution in ddY mouse stomach assessed per gorgan at 1 uCi, iv after 30 mins; type: ADME, organism-based; settings: in vivo, 0.5 h
Kidney [36] = test: Biodistribution in ddY mouse kidney assessed per gram of tissue at 1 uCi, iv after 2 mins; type: ADME, organism-based; settings: in vivo
Intestine [37] = test: Biodistribution in ddY mouse intestine assessed per gram of tissue at 1 uCi, iv after 30 mins; type: ADME, organism-based; settings: in vivo, 0.5 h
Blood [38] = test: Biodistribution in ddY mouse blood assessed per gram of tissue at 1 uCi, iv after 15 mins; type: ADME, organism-based; settings: in vivo, 0.25 h
Kidney [39] = test: Biodistribution in ddY mouse kidney assessed per gram of tissue at 1 uCi, iv after 30 mins; type: ADME, organism-based; settings: in vivo, 0.5 h
Stomach [40] = test: Biodistribution in ddY mouse stomach assessed per gorgan at 1 uCi, iv after 120 mins; type: ADME, organism-based; settings: in vivo, 2 h
Spleen [41] = test: Biodistribution in ddY mouse spleen assessed per gram of tissue at 1 uCi, iv after 15 mins; type: ADME, organism-based; settings: in vivo, 0.25 h
Intestine [42] = test: Biodistribution in ddY mouse intestine assessed per gram of tissue at 1 uCi, iv after 15 mins; type: ADME, organism-based; settings: in vivo, 0.25 h
Blood [43] = test: Biodistribution in ddY mouse blood assessed per gram of tissue at 1 uCi, iv after 2 mins; type: ADME, organism-based; settings: in vivo
Liver [44] = test: Biodistribution in ddY mouse liver assessed per gram of tissue at 1 uCi, iv after 30 mins; type: ADME, organism-based; settings: in vivo, 0.5 h
Spleen [45] = test: Biodistribution in ddY mouse spleen assessed per gram of tissue at 1 uCi, iv after 60 mins; type: ADME, organism-based; settings: in vivo, 1 h
Intestine [46] = test: Biodistribution in ddY mouse intestine assessed per gram of tissue at 1 uCi, iv after 120 mins; type: ADME, organism-based; settings: in vivo, 2 h

O=C(/C=C/c1ccc2[nH]ccc2c1)c1ccc(O)cc1
Ki [1]: > 360 nM

O=C(/C=C/c1ccc2[nH]ccc2c1)c1ccc(Cl)cc1
Ki [1]: 8.43 nM

O=C(/C=C/c1ccc2[nH]ccc2c1)c1ccc([125I])cc1
Drug uptake (Intestine [2]): 1.72 %ID
Drug uptake (Stomach [3]): 0.96 %ID
Drug uptake (Lung [4]): 3.19 %ID
Drug uptake (Blood [5]): 3.72 %ID
Drug uptake (Heart [6]): 1.72 %ID
Drug uptake (Lung [7]): 4.86 %ID
Drug uptake (Liver [8]): 2.69 %ID
Drug uptake (Stomach [9]): 1.07 %ID
Drug uptake (Spleen [10]): 1.89 %ID
Drug uptake (Brain [11]): 0.21 %ID
Drug uptake (Heart [12]): 2.27 %ID
Drug uptake (Stomach [13]): 2.01 %ID
Drug uptake (Heart [14]): 1.61 %ID
Drug uptake (Blood [15]): 4.79 %ID
Drug uptake (Kidney [16]): 3.11 %ID
Drug uptake (Kidney [17]): 2.78 %ID
Drug uptake (Lung [18]): 7.33 %ID
Drug uptake (Brain [19]): 0.2 %ID
Drug uptake (Lung [20]): 4.2 %ID
Drug uptake (Brain [21]): 0.29 %ID
Drug uptake (Heart [22]): 1.33 %ID
Drug uptake (Kidney [23]): 4.03 %ID
Drug uptake (Brain [24]): 0.41 %ID
Drug uptake (Liver [25]): 1.48 %ID
Drug uptake (Liver [26]): 2.21 %ID
Drug uptake (Lung [27]): 3.4 %ID
Drug uptake (Blood [28]): 4.15 %ID
Drug uptake (Spleen [29]): 2.4 %ID
Drug uptake (Brain [30]): 0.13 %ID
Drug uptake (Heart [31]): 3.27 %ID
Drug uptake (Spleen [32]): 3.02 %ID
Drug uptake (Intestine [33]): 1.36 %ID
Drug uptake (Liver [34]): 1.43 %ID
Drug uptake (Stomach [35]): 0.85 %ID
Drug uptake (Kidney [36]): 7.3 %ID
Drug uptake (Intestine [37]): 2.32 %ID
Drug uptake (Blood [38]): 5.7 %ID
Drug uptake (Kidney [39]): 3.26 %ID
Drug uptake (Stomach [40]): 1.19 %ID
Drug uptake (Spleen [41]): 2.96 %ID
Drug uptake (Intestine [42]): 2.01 %ID
Drug uptake (Blood [43]): 8.85 %ID
Drug uptake (Liver [44]): 1.91 %ID
Drug uptake (Spleen [45]): 2.27 %ID
Drug uptake (Intestine [46]): 2.13 %ID

Nc1ccc(C(=O)/C=C/c2ccc3[nH]ccc3c2)cc1
Ki [1]: > 1010 nM

CN(C)c1ccc(/C=C/C(=O)c2ccc(I)cc2)cc1
Activity [1]: Dose-dependent effect
Ki [1]: 1.97 nM

CN(C)c1ccc(C(=O)/C=C/c2ccc3[nH]ccc3c2)cc1
Ki [1]: 5.17 nM

— ChEMBL document CHEMBL1667786, “Synthesis and biological evaluation of indole-chalcone derivatives as β-amyloid imaging probe” (Bioorg Med Chem Lett, 2011)
